{"source": "patent US11596620B2", "about": "“Formulations with reduced oxidation” (Genentech, Inc., priority 2013, dated 2023)", "key": {"mAb1 [1]": {"system": "mAb1", "assay": "Light stress of mAb1 formulation (eight hours at 250 W/m^2), papain digest RP-HPLC", "assay_type": "physicochemical, human", "details": "mAb1 5 mg/mL, eight hours of light at 250 W/m^2", "description": "L-tryptophan (L-Trp), an antioxidant used in protein formulations, has been recently shown to be photosensitive (Igarashi et al., Anal Sci 23(8):943-8 (2007)) and to have the ability to produce H2O2 upon light exposure. […] Control vials were wrapped in aluminum foil and treated similarly. After light exposure, solutions were prepared for analysis by reverse-phase HPLC. […] Following incubation, 900 μL of the solution was combined with 100 μL of 1 M dithiothreitol (DTT) and incubated for another thirty minutes at 37° C. Samples were then run on an Agilent, Inc. 1100/1200 HPLC system (Santa Clara, Calif.) equipped with UV detection at 280 nm in conjunction with a Varian, Inc. Pursuit 3 μm, 2 mm ID×250 mm diphenyl column (Palo Alto, Calif.). Mobile Phase A was 0.1% TFA in water. Mobile Phase B was 0.1% TFA in acetonitrile. The mobile phase gradient increased linearly from 34% B at 0 minutes to 43% B at 50.0 minutes, then to 95% B at 50.1 minutes. The gradient remained at 95% B until 60.1 minutes, and then decreased linearly from 95% B to 34% B between 60.1 and 60.2 minutes. The gradient remained at 34% B until the end of the cycle at 80.2 minutes. The column temperature was 65° C., total flow rate was 0.2 mL/min, and injection volume of each sample was 6 μL. Chromatograms were then integrated for quantification of oxidation."}, "[2]": {"assay": "Photosensitivity screening assay (H2O2 by Amplex Ultra Red after light exposure)", "assay_type": "physicochemical", "details": "1 mM in 20 mM histidine acetate pH 5.5, four hours of light at 250 W/m^2", "description": "As a screening tool, antioxidant candidates were exposed to light for four hours at 250 W/m^2 and the resulting H2O2 formation was quantified by the Amplexassay. Specifically, antioxidants were prepared to 1 mM in 20 mM histidine acetate buffer at pH 5.5. The 1 mM antioxidant solutions were aliquoted into glass vials (2 mL/glass vial) and exposed to four hours of light at 250 W/m^2 in an Atlas SunTest CPS+ Xenon Test Instrument (Chicago, Ill.). Total UV dose was 90 watt-hours/square meter and total visible dose was 0.22 million lux hours over the 4-hour period. Control vials were wrapped in aluminum foil and treated similarly. The amount of hydrogen peroxide generated after exposure to light was measured using the Amplex® Ultra Red Assay (Invitrogen, Carlsbad, Calif.) following the manufacturer's recommended procedure. On addition of horseradish peroxidase (HRP), the dye reacted 1:1 stoichiometrically with H2O2, resulting in the production of fluorescent oxidation product resorufin. In this study, fluorescence readings were obtained using a Spectra Max M2 Micro-plate Reader (Molecular Devices, Sunnyvale, Calif.) with excitation and emission set at 560 nm and 590 nm, respectively. Final H2O2 concentrations were determined using a standard curve ranging from 0 μm to 20 μm."}, "[3]": {"assay": "Cyclic voltammetry (CV) screening assay, oxidation potential", "assay_type": "physicochemical", "description": "The oxidation/reduction characteristics of the compounds were investigated. Several compounds, including L-Trp and derivatives, were evaluated for the protection of Trp oxidation in proteins using cyclic voltammetry (CV) and rank ordered based on their oxidation potentials (Table 2). Specifically, the candidate antioxidants were dissolved in deionized water and then added to a 0.2 M lithium perchlorate electrolyte solution. […] Solutions were scanned from −0.10 V to +1.50 V at a scan rate of either 100 or 500 mV/sec. The analytical cell was purged for four minutes with nitrogen before scanning of each antioxidant solution. The input was a linear scan of the potential of a working electrode, and the output was measurement of the resulting current. […] Redox reactions were characterized by sharp increases or decreases in current (peaks). The potential at which an oxidation reaction occurred was referred to as the anodic peak potential (or oxidation potential), and the potential at which a reduction occurred was referred to as is the cathodic peak (or reduction) potential."}, "mAb1 [4]": {"system": "mAb1", "assay": "mAb1 light stress study (16 hours at 250 W/m^2), RP-HPLC", "assay_type": "physicochemical, human", "details": "16 hours of light at 250 W/m^2", "description": "The fragments were reduced with DTT, and then separated and identified via Liquid Chromatography-Mass Spectrometry (LC-MS). […] Comparison of area integrated under the oxidized and native peaks was used to quantify HC Fab and Fc oxidation. […] By using the papain digest RP-HPLC method in the present study it was possible to investigate Trp residue oxidation by quantifying HC Fab oxidation, and Met residue oxidation by quantifying HC Fc oxidation.\nAntioxidants were added at 1 mM. Glass vials containing these formulations were exposed to 250 W/m^2 light in an Atlas SunTest CPS+ Xenon Test Instrument (Chicago, Ill.). Control vials were wrapped in aluminum foil and treated similarly. After light exposure, solutions were prepared for analysis by reverse-phase HPLC as described above."}, "mAb1 [5]": {"system": "mAb1", "assay": "mAb1 Fenton stress study (H2O2 + Fe), RP-HPLC", "assay_type": "physicochemical, human", "details": "10 ppm H2O2 and 0.2 mM Fe(III), 40° C. for 3 hours; antioxidant 1 mM", "description": "Antioxidants were added at a final concentration of 1 mM. […] After incubation, each reaction was quenched by addition of 100 mM L-Met and then prepared for analysis by reverse-phase HPLC as described above.\nThe Fenton reaction, using a mixture of H2O2 and Fe ions, generates oxidation through a metal catalyzed, hydroxyl radical reaction (Prousek et al., Pure and Applied Chemistry 79(12):2325-2338 (2007)). This reaction generated Fab, i.e. tryptophan, oxidation in mAb1. The reaction was also carried out in the presence of select antioxidants that were useful against both AAPH and light induced oxidation as reported above. Data related to the antioxidant properties against Fenton mediated reaction were analyzed using the RP-HPLC assay as described above. The Fenton reaction used 10 ppm of H2O2 and 0.2 mM of Fe(III). The reaction was incubated at 40° C. for 3 hours, quenched with 100 mM L-Met and analyzed using RP-HPLC after papain digest. All samples were the average of three separate vials, and mAb1 control (Ref Mat) was one vial with five independent injections on the HPLC. […] In regards to protection against Fc oxidation, the tested excipients (other than salicylic acid) performed slightly better than L-Trp."}}, "data": [{"smiles": "N[C@@H](Cc1c[nH]c2ccccc12)C(=O)O", "note": "[L-Trp, L-tryptophan]", "values": [{"measurement": "Fc oxidation", "setting": "mAb1 [1]; 1 mM L-Trp, reference material and foil control about 8%", "result": "over 20%"}, {"measurement": "Fab oxidation", "setting": "mAb1 [1]; no excipient or 1 mM L-Trp, reference material and foil control about 2%", "result": "~9", "unit": "%"}, {"measurement": "(H2O2 produced by Compound)/(H2O2 produced by L-Trp)", "setting": "[2]", "result": 1}, {"measurement": "Oxidation Potential", "setting": "[3]; anodic peak potential, glassy carbon working electrode, 0.2M lithium perchlorate", "result": 0.938, "unit": "V vs Ag/AgCl"}, {"measurement": "Oxidation Potential", "setting": "[3]; cyclic voltammetry, 0.2 M lithium perchlorate", "result": 0.938, "unit": "V vs Ag/AgCl"}, {"measurement": "Fc oxidation as multiple of the control level", "setting": "mAb1 [4]; 1 mM L-Trp", "result": 7, "unit": "times"}, {"measurement": "Fab oxidation increase over the control level (mAb1 Ref Mat)", "setting": "mAb1 [4]; excipient 1 mM or none", "result": "over 11 fold"}, {"measurement": "Protection of Fab oxidation with respect to the no excipient case", "setting": "mAb1 [5]", "result": "about 25%"}]}]}
